Measured values from PubChem BioAssay (NCI).
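Test compounds were applied to cells in 96-well plates for 48 hours at 5 doses. GI50 = concentration required for 50% inhibition of growth. Definition used: TGI = concentration required for complete inhibition of growth.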

Tests used:
Experiment in all cases: DTP human tumour cell line panel, 48 h
[1] = tested on: HOP-92 NSCLC
[2] = tested on: HOP-62 NSCLC
[3] = tested on: HT29 colon
[4] = tested on: UO-31 renal
[5] = tested on: MOLT-4 leukemia
[6] = tested on: SK-OV-3 ovarian
[7] = tested on: EKVX NSCLC
[8] = tested on: RXF 393 renal

SMILES	TGI [1]	TGI [2]	TGI [3]	TGI [4]	TGI [5]	TGI [6]	TGI [7]	TGI [8]	GI50 [1]	GI50 [8]	GI50 [2]	GI50 [3]	GI50 [4]	GI50 [5]	GI50 [6]	GI50 [7]
CC(C)n1c2c(c3ccccc3c1=O)C(=O)c1ccccc1-2	> 100 µM	> 100 µM	> 100 µM	> 100 µM	> 100 µM	> 100 µM	> 100 µM									
CC(=O)O/N=C1\C=Cc2c(no[n+]2[O-])C1=O		> 100 µM	32.4 µM	28.3 µM	36.6 µM		31.5 µM	28.5 µM								
O=C1/C(=C/c2ccc(F)cc2)CN(Cc2cn(CCNc3ccnc4cc(Cl)ccc34)nn2)C/C1=C\c1ccc(F)cc1	3.05 µM	3.76 µM	2.09 µM	2.7 µM	7.08 µM	3.02 µM		3.11 µM	1340 nM	1660 nM	2.07 µM	0.68 µM	1370 nM	2380 nM	1.6 µM	
N=C(N)c1ccc(-c2ccc(-c3ccco3)o2)cc1	4.7 µM	23 µM	8.47 µM	16.3 µM	10.8 µM	21.2 µM		18.4 µM	1380 nM	4680 nM	10.4 µM	2.78 µM	3170 nM	3260 nM	9.21 µM	
CCCCC#Cc1c(I)n(C2OC(CO[Si](C)(C)C(C)(C)C)C3OC(C)(C)OC32)c(=O)[nH]c1=O (stereo unspecified)	8.08 µM	34.7 µM	22.1 µM	11.2 µM	4.34 µM		28.7 µM	5.46 µM	3040 nM	1500 nM	20 µM	8.21 µM	1530 nM	1770 nM		15.3 µM
CC(C)=CCNc1ncnc2c1ncn2C1OC(COP(=O)(O)O)C(O)C1O (stereo unspecified)	5.1 µM	> 100 µM	42.5 µM	> 52 µM	> 48.5 µM	> 100 µM		8.98 µM	1630 nM	2380 nM	23.5 µM	3.74 µM	4100 nM	4220 nM	4.77 µM	
Cn1c(=O)c2[nH]c(Nc3ccccc3)nc2n(C)c1=O	> 10 µM	> 10 µM	> 10 µM		> 10 µM	> 10 µM	> 10 µM	> 10 µM								
COc1ccc(C2CC(c3cccc(Nc4ccnc5cc(Cl)ccc45)c3)=NN2c2ccccc2)cc1 (stereo unspecified)	47.6 µM	21.3 µM		21.6 µM	27.6 µM	76.5 µM		49.7 µM	3930 nM	8910 nM	0.949 µM		478 nM	432 nM	9.62 µM	
Cc1ccc(NC(=O)C(=O)C2C(=O)C3=C(CC2(C)C)NC2C=CC=CC2S3)c(C)c1 (stereo unspecified)	> 100 µM		> 100 µM	> 100 µM	> 100 µM	> 100 µM	> 100 µM	> 100 µM								
COc1cc(OC)cc(-c2n[nH]nc2-c2ccc3c(c2)OCO3)c1	1.59 µM	> 100 µM	12.5 µM	72.7 µM	51.8 µM	93.2 µM			122 nM		0.336 µM	0.392 µM	661 nM	572 nM	0.486 µM	
Oc1ccc(Br)cc1CN1CCN(Cc2ccc(Cl)cc2)CC1	72.1 µM	> 100 µM	62.5 µM	> 100 µM	> 100 µM	> 100 µM		80 µM	11100 nM	17300 nM	36.5 µM	23.2 µM	9500 nM	26700 nM	31 µM	
COc1ccc(/C(C#N)=C/c2nc3c(N4CCOCC4)nc(Cl)nc3n2C)cc1OC	2.94 µM	2.53 µM	1.4 µM	1.65 µM	2.89 µM	5.52 µM	2.76 µM		246 nM		< 0.01 µM	< 0.01 µM	< 10 nM	25.1 nM	< 0.01 µM	
O=C1CCc2cc([N+](=O)[O-])ccc2O1	> 100 µM	> 100 µM	> 100 µM		> 100 µM		> 100 µM	> 100 µM								
COc1cc(C2CC(c3ccc(C)cc3)=NN2C(C)=O)ccc1Oc1ccnc2cc(Cl)ccc12 (stereo unspecified)	> 100 µM	> 100 µM	> 100 µM		> 100 µM	> 100 µM	> 100 µM	> 100 µM	30100 nM	3570 nM	4.3 µM	> 100 µM		> 100000 nM	32.4 µM	> 100 µM
CC(CC(C)[C@H]1CCC2[C@H]3C(CC[C@@]21C)[C@@]1(C)CCC(O)C[C@H]1C[C@@H]3O)C(=O)O (stereo partly specified)	> 100 µM	> 100 µM	> 100 µM	> 100 µM	> 100 µM		> 100 µM	> 100 µM								
CCSc1sc(-c2ccc(C)cc2)nc1[P+](c1ccccc1)(c1ccccc1)c1ccccc1	0.593 µM	1.38 µM		0.866 µM	1.87 µM	0.898 µM	0.904 µM	1.23 µM	174 nM	255 nM	0.316 µM		254 nM	391 nM	0.262 µM	0.244 µM
COc1cc2c(cc1OC)[C@@H]1[C@H](C2=O)c2ccc([N+](=O)[O-])cc2C(=O)N1CCCBr	> 100 µM	0.709 µM				> 100 µM	> 100 µM	2.22 µM	3150 nM	285 nM	< 0.0277 µM	0.35 µM		< 18 nM	1.32 µM	1.78 µM
COc1cc(Oc2cnc3cc(N)cc(N)c3n2)cc(OC)c1OC		> 100 µM	40.4 µM	> 100 µM	51.9 µM	> 100 µM	> 100 µM	89.8 µM		25400 nM	48.1 µM	18.5 µM	35000 nM	20200 nM	91.2 µM	61.4 µM
N#CC1=C(N)NC(=S)NC1c1ccc(-c2ccc(-c3nc4ccccc4s3)cc2)o1 (stereo unspecified)	> 50 µM	> 50 µM		> 50 µM		> 50 µM	> 50 µM		> 50000 nM		> 50 µM		> 50000 nM		> 50 µM	> 50 µM
